What is called IC50 is the midpoint of a concentration-inhibition curve. As usually defined, the melting point is the temperature, or range, at which the solid turns liquid.

Experimental findings from patent US8329699B2, “Pyrrolopyrazine kinase inhibitors” (Hoffmann-La Roche Inc., priority 2010, dated 2012) are described below.

Data set [1] concerns the target T1, JAK3: Recombinant human kinase domain (h-jak3-sf21-c) (Homo sapiens, UniProt P52333).
T1 construct: JAK3: Recombinant human kinase domain from Millipore (Cat # 14-629) or prepared; purchased Millipore 14-629
Nature of the data set: Determination of IC50 of Janus Kinase (JAK) inhibition, JAK3 (radioactive end-point assay with 33P-ATP). The following applies: ATP 1.5 uM, peptide 50 uM, 20 minutes, room temperature. In kind it is biochemical. The text has this:
Determination of IC50 of Janus Kinase (JAK) Inhibition:
Enzymes and peptide substrate used are described below: • JAK1: Recombinant human kinase domain from Invitrogen (Cat # PV4774) • JAK3: Recombinant human kinase domain from Millipore (Cat # 14-629) or prepared. • JAK2: Recombinant human kinase domain from Millipore (Cat # 14-640) • Substrate: N-terminally biotinylated 14-mer peptide derived from activation loop of JAK1 with sequence of the peptide substrate: Biotin-[…]
Assay conditions used are described below: • Assay Buffer: JAK Kinase Buffer: 50 mM Hepes [pH 7.2], 10 mM MgCl2, 1 mM DTT, 1 mg/mL BSA. The assay is carried out in this buffer. • Assay Format The kinase activity of all three JAK kinases is measured using a radioactive, end-point assay and with trace amounts of^33P-ATP. The assays are carried out in 96-well polypropylene plates. Experimental Method:
All concentrations are final in the reaction mixture and all incubations are carried at room temperature. Assay steps are described below: • 1) Compounds are serially diluted in 100% DMSO typically at a 10× starting concentration of 1 mM. Final concentration of DMSO in the reaction is 10%. • 2) Compounds are preincubated with enzyme (0.5 nM JAK3 (commercially available), 0.2 nM JAK3 (prepared), 1 nM JAK2, 5 nM JAK1) for 10 minutes. • 3) Reactions are initiated by the addition of a cocktail of the two substrates (ATP and peptide premixed in the JAK Kinase Buffer). In the JAK2/JAK3 assays, ATP and the peptide are used at concentrations of 1.5 uM and 50 uM, respectively. JAK1 assay is carried out at an ATP concentration of 10 uM and a peptide concentration of 50 uM. • 4) The duration of the assay for JAK2 and JAK3 is 20 minutes. JAK1 assay is carried out for 40 minutes. With all three enzymes, reactions are terminated by the addition of 0.5M EDTA to a final concentration of 100 mM. • 5) 25 ul of terminated reactions are transferred to 150 ul of a 7.5% (v/v) slurry of streptavidin-coated sepharose beads in MgCl2- and CaCl2-free 1× Phosphate Buffered Saline containing 50 mM of EDTA in 96-well, 1.2 um MultiScreen-BV filter plates. • 6) After a 30-minute incubation, the beads are washed under vacuum with the following buffers: • a. 3 to 4 washes with 200 ul of 2M NaCl. • b. 3 to 4 washes with 200 ul of 2M NaCl plus 1% (v/v) phosphoric acid. • c. 1 wash with water. • 7) Washed plates are dried in a 60° C. oven for between 1 to 2 hours. • 8) 70 ul of Microscint 20 scintillation fluid is added to each well of filter plates and after at least 30 minutes of incubation, radioactive counts are measured in a Perkinelmer microplate scintillation counter.

T1 sequence (P52333 822-1111 limits assumed): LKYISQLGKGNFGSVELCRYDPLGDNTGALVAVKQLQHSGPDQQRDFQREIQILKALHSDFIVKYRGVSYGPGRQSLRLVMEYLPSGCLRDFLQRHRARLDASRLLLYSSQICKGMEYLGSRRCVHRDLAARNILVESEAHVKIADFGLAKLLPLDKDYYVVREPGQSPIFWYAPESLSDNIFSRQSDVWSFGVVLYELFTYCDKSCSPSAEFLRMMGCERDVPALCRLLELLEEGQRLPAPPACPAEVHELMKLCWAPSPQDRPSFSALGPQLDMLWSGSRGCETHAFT

Consider `CC(C)S(=O)(=O)N1CCCC(NC(=O)c2c[nH]c3ncc(C4CC4)nc23)C1` (stereo not shown) [Compound I-29, 2-Cyclopropyl-5H-pyrrolo[2,3-b]pyrazine-7-carboxylic acid [1-(propane-2-sulfonyl)-piperidin-3-yl]-amide], for which the melting point was in the range of 255 to 258 °C. The concentration for half-maximal inhibition (IC50) in data set [1] was 73.2 nM.

`CC1(C)OCCC1NC(=O)c1c[nH]c2ncc(C3CC3)nc12` (stereo not shown) [Compound I-4, 2-Cyclopropyl-5H-pyrrolo[2,3-b]pyrazine-7-carboxylic acid (2,2-dimethyl-tetrahydro-furan-3-yl)-amide] yielded a melting point greater than 300 °C. In addition, the IC50 in data set [1] was 5.3 nM.

`N#C[C@@H]1CCC[C@@H]1NC(=O)c1c[nH]c2ncc(C3CC3)nc12` (relative stereo) [Compound I-25, 2-Cyclopropyl-5H-pyrrolo[2,3-b]pyrazine-7-carboxylic acid ((cis)-2-cyano-cyclopentyl)-amide]: the melting point is greater than 300 °C. The concentration for half-maximal inhibition (IC50) in data set [1] came out at 10 nM.

In the case of `CS(=O)(=O)N1CCC[C@@H](NC(=O)c2c[nH]c3ncc(C4CC4)nc23)C1` [Compound I-31, 2-Cyclopropyl-5H-pyrrolo[2,3-b]pyrazine-7-carboxylic acid ((R)-1-methanesulfonyl-piperidin-3-yl)-amide], the melting point lay in the range of 277 to 280 °C. The half-inhibitory concentration (IC50) in data set [1] was 3.7 nM.

As for `CS(=O)(=O)N1CCCC(NC(=O)c2c[nH]c3ncc(C4CC4)nc23)C1` (stereo not shown) [Compound I-24, 2-Cyclopropyl-5H-pyrrolo[2,3-b]pyrazine-7-carboxylic acid (1-methanesulfonyl-piperidin-3-yl)-amide], the melting point lay in the range of 284 to 287 °C. For the same compound, the 50% inhibitory concentration (IC50) in data set [1] stood at 8 nM.
